According to patent US9125879B2, “Composition containing a quinoa extract for dermatological use” (LABORATOIRES EXPANSCIENCE, priority 2006, dated 2015):

Columns and labels:
Format in all cases: cell-based
collagen I = experiment: Genic expression of collagen I in fibroblasts (real time quantitative PCR); details: 5 ng/mL, 48 hours
Excerpt: (§1) b. Study of the Effect of Quinoa Peptides on the Expression of Genes Coding for Collagen I and Collagen III and Elastin by RT-PCR
(§2) b.1. Principle of Real Time Quantitative PCR:
(§3) Real time quantitative PCR or QRT-PCR (Quantitative Real Time Polymerase Chain Reaction) is a molecular biology method, which allows specific and quantitative measurement of the expression of genes of interest by amplification. Quantification is based on tracking the amplification of genes in real time by using as a reporter system, SYBR Green technology: a molecule with fluorescent properties which is inserted inside the double strand DNA. PCR takes place in a succession of temperature cycles according to 3 steps: • Denaturation: separation of 2 DNA strands. • Hybridization: recognition of a DNA sequence corresponding to a target gene by means of specific primers. • Extension: of the sequence of interest by a action of a polymerase.
(§4) DNA amounts are compared in the exponential part, moment during which the increase in the DNA amount is proportional to the initial matrix amount.
(§5) On D0, the fibroblasts were sown on 6-well plates in RPMI medium added with 10% SVF. On D1, the fibroblasts were treated with TGF β1 at 5 ng/mL or the quinoa oil concentrate with 0.005% and 0.01% DM in RPMI medium with 1% SVF for 48 hours. At the end of the treatment of the cells, the total […] were extracted (extraction kit RNeasy kit MiniKit; Qiagen) and then assayed quantitatively in minichips by means of an Experion system (Experion RNA StdSens kit; Biorad). Total RNAs are then back-transcribed into cDNA (iScript cDNA Synthesis kit; Biorad). Finally the neo-synthesized cDNAs relative to the genes of interest (collagen I, collagen III, elastin) or to reference genes (HPRT, GAPDH, YWHAZ, beta actin=normalizers) were selectively amplified with real time PCR (iQ5, Biorad) by using specific primers of the target sequences.
(§6) The expression of the reference genes is analyzed in the same samples as those for which expression of the genes of interest is evaluated in order to normalize the results and to make sure that they are actually the results of the effect of the treatment by quinoa oil concentrate.
(§7) b.3. Analysis of the Results:
(§8) The variation in the number of copies of the genes of interest during the treatment is then calculated according to the following formula: DDCt=control DCt−treatment DCt.
(§9) Finally, the relative amount or the expression level of the genes of interest, normalized by the expression level of the reference genes in the untreated and treated samples is obtained by the formula: QR=2DDCt

γ-2 chain of laminin 5 = experiment: Genic expression of the γ-2 chain of laminin 5 in keratinocytes (RT-PCR); details: 5 ng/ml, 48 hours
Description: (§10) a. Study of the Effect of Quinoa Peptides on the Expression of Genes Coding for Laminin 5 and PPM-9 by RT-PCR • Principle of real time quantitative PCR: cf. Example 4 • Procedure:
(§11) On day 0, the keratinocytes were sown in 24-well plates in a KGM-2 medium. On D1, the cells were treated with TGFβ1 at 5 ng/mL or quinoa peptides with 0.05 and 0.1% DM for 48 hours. At the end of the treatment of the cells, the total RNAs were extracted (RNeasy MiniKit extraction kit; Qiagen) and then quantitatively assayed in minichips by means of the Experion system (Experion RNA StdSens kit; Biorad). The total RNAs were then backtranscribed into cDNA (iScript cDNA Synthesis kit; Biorad). Finally, the neo-synthesized cDNAs relative to the gene of interest (genes coding for the 3 chains making up laminin 5: […] and MMP-9) or to the reference genes (HPRT, GAPDH, YWHEZ, beta actin=normalizers) were selectively amplified by real time PCR (iQ5, Biorad) by using specific primers of the target sequences.

elastin = experiment: Genic expression of elastin in fibroblasts (real time quantitative PCR); details: 5 ng/mL, 48 hours
Excerpt: as §1, §2, §3, §4, §5, §6, §7, §8, §9

MMP-9 [1] = experiment: Dosage of MMP-9 protein secreted by keratinocytes (ELISA); details: 5 ng/ml, supernatants of keratinocytes
Description: d. Dosage of MMP-9 Secreted by Keratinocytes.
The keratinocytes were sown in 24-well plates; after 24 hours in incubation at 37° C., with 5% CO2, the cells were treated with quinoa peptides with 0.05% and 0.01% DM. TGFβ tested at 5 ng/mL was used as a positive control. After 48 and 72 hours of treatment, the amount of MMP-9 secreted by the cells was assayed in the culture supernatant by means of an ELISA kit (R&D Systems), according to the procedure recommended by the supplier. In parallel, the amount of living cells per well was determined by a colorimetric neutral red test: optical density OD, proportional to the amount of living cells, is read at 570 nm.
The amount of MMP-9 is expressed in living cells: (ng/mL)/OD570 (optical density at 570 nm) MTT.

collagen III = experiment: Genic expression of collagen III in fibroblasts (real time quantitative PCR); details: 5 ng/mL, 48 hours
Excerpt: as §1, §2, §3, §4, §5, §6, §7, §8, §9

β-3 chain of laminin 5 = experiment: Genic expression of the β-3 chain of laminin 5 in keratinocytes (RT-PCR); details: 5 ng/ml, 48 hours
Description: as §10, §11

α-3 chain of laminin 5 = experiment: Genic expression of the α-3 chain of laminin 5 in keratinocytes (RT-PCR); details: 5 ng/ml, 48 hours
Description: as §10, §11

KGF = experiment: Dosage of KGF secreted by fibroblasts (ELISA); details: for % A (increase) / Amount of KGF: 5 ng/ml, supernatants of fibroblasts
Description: e. Dosage of KGF Secreted by Fibroblasts
The fibroblasts were sown in a 24-well plate in RPMI at 1% SVF; after 24 hours of incubation at 37° C., with […], the cells were treated with quinoa peptides with 0.05% and 0.01% DM. IL1α (Sigma) at 100 ng/mL was used as a positive control. After 24 and 48 hours of treatment, the amount of KGF salted out by the fibroblasts was assayed with an ELISA kit (R&D Systems), according to the procedure recommended by the supplier. In parallel, the amount of living cells per well was determined by a colorimetric neutral red test: optical density OD, proportional to the amount of living cells, is read at 570 nm. In parallel, the amount of living cells per well was determined by an MTT colorimetric test: optical density OD, proportional to the amount of living cells, is read at 570 nm.
The amount of KGF is expressed by the living cells: pg/mL/OD570 MTT.

MMP-9 [2] = experiment: Genic expression of MMP-9 in keratinocytes (RT-PCR); details: 5 ng/ml, 48 hours
Description: as §10, §11

keratinocytes = experiment: Proliferation of keratinocytes by the MTT method
Description: c. Study of the Proliferation of Keratinocytes by the MTT Method
On D0, the keratinocytes are sown in a KGM2 medium day1, the cells are treated with trans-retinoic acid (ATRA) at 1 μM or quinoa peptides with 0.05% and 0.1% DM for 24 and 48 hours. At the end of the treatment, cell viability is quantified by an MTT test: after 3 hours of contact with MTT, the formed formazan crystals are solubilized by DMSO and the optical density, proportional to the amount of metabolically active cells therefore live cells, is read at 570 nm against the blank (wells without any cells).

## TGFβ: growth factor used as a positive control at 5 ng/mL
Collagen I
  % of induction: 87%
  Mean dCt: −3.2
  QR: 1.87
  ddCt: 0.9
γ-2 chain of laminin 5
  % of induction: 1676%
  Mean dCt: −1.925
  QR: 17.76
  ddCt: 4.15
γ-2 chain of laminin 5; listed as TGF-β1
  QR: ~17
elastin
  % of induction: 435%
  QR: 5.35
  dCt: 2.16
  ddCt: 2.4
MMP-9 [1]; treatment 48 h
  % A (increase): 372%
  Amount of MMP-9: 11.604 ng/mL/OD neutral red
MMP-9 [1]; treatment 72 h
  % A (increase): 568%
  Amount of MMP-9: 14.746 ng/mL/OD neutral red
Collagen III
  % of induction: 427%
  Mean dCt: 2.51
  QR: 5.27
  ddCt: 2.4
β-3 chain of laminin 5
  % of induction: 420%
  Mean dCt: −0.944
  QR: 5.20
  ddCt: 2.38
β-3 chain of laminin 5; listed as TGF-β1
  QR: ~5
α-3 chain of laminin 5
  % of induction: 1193%
  Mean dCt: −0.944
  QR: 12.93
  ddCt: 3.69
α-3 chain of laminin 5; listed as TGF-β1
  QR: ~12
KGF; treatment 24 h
  % A (increase): 431%
  Amount of KGF: 147.886 pg/mL/OD neutral red
KGF; treatment 48 h
  % A (increase): 336%
  Amount of KGF: 352.387 pg/mL/OD neutral red
MMP-9 [2]
  % of induction: 807%
  Mean dCt: 3.07
  QR: 8
  ddCt: 3.01

## CC1=C(/C=C/C(C)=C/C=C/C(C)=C/C(=O)O)C(C)(C)CCC1 [ATRA, trans-retinoic acid]
keratinocytes; 1 μM
  Mean OD570 (MTT): 1.361
keratinocytes; 1 μM, negative control = 100
  % of proliferation: 136%
keratinocytes; positive control
  proliferation rate induced: +36%

B1: IL1α: IL1α (Sigma) at 100 ng/mL used as a positive control (protein, UniProt P01583 113-271, looked up)
Interleukin-1 alpha: SAPFSFLSNVKYNFMRIIKYEFILNDALNQSIIRANDQYLTAAALHNLDEAVKFDMGAYKSSKDDAKITVILRISKTQLYVTAQDEDQPVLLKEMPEIPKTITGSETNLLFFWETHGTKNYFTSVAHPNLFIATKQDYWVCLAGGPPSITDFQILENQA
KGF; positive control, 100 ng/mL
  synthesis of KGF by fibroblasts: increased
